≈ marks a conversion by molar mass, not a printed value. Where two headings read alike, the source gives them in different places. Where a SMILES comes first, the peptide text is derived from it.
Columns and labels:
L. lactis IL1403 = type: cell-based, Lactococcus lactis
Protocol: The bacteriocin activity was assayed using a microtitre plate assay (Holo et al., 1991, supra). The plates were incubated at 30° C. for 8 h and the growth was measured spectrophotometrically at 600 nm (A600) with 15 min intervals using SPECTROstarNano (BMG LABTECH, Germany). The MIC was defined as the minimal bacteriocin concentration that inhibited the growth of the indicator strain by at least 50% (50% of the turbidity of the control culture without bacteriocin) in 200 μl culture. MIC is equal to one bacteriocin unit (BU).
All the peptides in the experiments were synthesized by Pepmic Co., LTD, China with 90-99% purity except for CerHA, CerHB and CerVC (85% purity). Aureocin A70F is almost identical to bacteriocin AureocinA70, both being made up of four peptides (peptide A, B, C and D) but in peptide D of Aureocin A70F leucine 29 is replaced with phenylalanine (EWU40578.1). Synthesized peptides were solubilized to a concentration of 0.1 to 10 mg/ml in 0.1% (vol/vol) trifluoroacetic acid and stored at −20° C. until use.
The three identified peptides termed GarKosA, GarKosB and GarKosC were chemically synthesized and tested for antimicrobial activity. The antimicrobial activity of the individual peptides was assessed against L. lactis IL1403 (Table 6).

[1] = Tryptophan-to-alanine GarA variants, antibacterial activity; type: cell-based; settings: in combination with the other peptides of Garvicin KS
Protocol: The three tryptophan residues in GarA were replaced one by one with alanine (Table 9). Antibacterial activity was tested when used in combination with the other peptides of Garvicin KS.

MIC, single peptide (L. lactis IL1403; IL1403, 8 h)	Molecule	also measured
>6 µM	CC[C@H](C)[C@H](NC(=O)[C@H](CCCCN)NC(=O)[C@H](CCCCN)NC(=O)[C@H](CC(C)C)NC(=O)CNC(=O)CNC(=O)[C@H](Cc1ccc(O)cc1)NC(=O)[C@@H](NC(=O)[C@H](C)NC(=O)CNC(=O)CNC(=O)[C@H](C)NC(=O)[C@@H](NC(=O)CNC(=O)CNC(=O)[C@H](C)NC(=O)[C@H](Cc1ccccc1)NC(=O)[C@H](C)NC(=O)[C@H](CCCCN)NC(=O)CNC(=O)[C@H](CC(C)C)NC(=O)[C@H](CCSC)NC(=O)[C@H](CCCCN)NC(=O)[C@@H](NC(=O)[C@H](C)NC(=O)[C@H](C)NC(=O)CNC(=O)[C@@H](N)CCSC)C(C)C)C(C)C)[C@@H](C)O)C(=O)N[C@@H](Cc1ccccc1)C(=O)NCC(=O)O [CerV B] (H-MGAAVKMLGKAFAGGVAGGATYGGLKKIFG-OH; N-terminus and C-terminus assumed)	
>6 µM	CC[C@H](C)[C@H](NC(=O)[C@H](CCCNC(=N)N)NC(=O)[C@@H](NC(=O)CNC(=O)[C@H](C)NC(=O)[C@H](CCC(=O)O)NC(=O)[C@H](Cc1c[nH]c2ccccc12)NC(=O)CNC(=O)[C@H](CC(C)C)NC(=O)[C@H](Cc1c[nH]c2ccccc12)NC(=O)[C@H](CO)NC(=O)[C@H](C)NC(=O)[C@H](C)NC(=O)[C@@H](NC(=O)CNC(=O)CNC(=O)[C@@H](NC(=O)[C@@H](NC(=O)[C@H](CCCCN)NC(=O)[C@H](CC(C)C)NC(=O)CNC(=O)CNC(=O)[C@H](CCCCN)NC(=O)[C@@H](NC(=O)[C@@H](NC(=O)[C@H](C)NC(=O)CNC(=O)[C@@H](N)CCSC)C(C)C)C(C)C)[C@@H](C)CC)[C@@H](C)CC)[C@@H](C)O)[C@@H](C)O)C(=O)N[C@@H](Cc1c[nH]c2ccccc12)C(=O)N[C@@H](CCCCN)C(=O)O [CerV C] (H-MGAVVKGGLKIIGGTAASWLGWEAGTRIWK-OH; N-terminus and C-terminus assumed)	
	CC[C@H](C)[C@H](NC(=O)[C@H](C)NC(=O)CNC(=O)[C@@H](N)CCSC)C(=O)N[C@H](C(=O)N[C@@H](CCCCN)C(=O)N[C@@H](C)C(=O)NCC(=O)N[C@@H](C)C(=O)N[C@@H](CCCCN)C(=O)N[C@H](C(=O)N[C@H](C(=O)NCC(=O)N[C@@H](CCCCN)C(=O)NCC(=O)N[C@@H](C)C(=O)N[C@@H](CC(C)C)C(=O)N[C@H](C(=O)NCC(=O)NCC(=O)NCC(=O)N[C@H](C(=O)N[C@@H](Cc1c[nH]c2ccccc12)C(=O)N[C@@H](CC(C)C)C(=O)N[C@@H](C)C(=O)N[C@@H](CCC(=O)O)C(=O)N[C@@H](CCCCN)C(=O)N[C@@H](CC(C)C)C(=O)N[C@@H](Cc1ccccc1)C(=O)NCC(=O)NCC(=O)N[C@@H](CCCCN)C(=O)O)C(C)C)[C@@H](C)O)C(C)C)[C@@H](C)CC)[C@@H](C)CC [Kos C] (H-MGAIIKAGAKIVGKGALTGGGVWLAEKLFGGK-OH; N-terminus and C-terminus assumed)	MIC, single peptide (L. lactis IL1403; L. lactis IL1403, synthetic single peptide, >=50% growth inhibition): 6 µM (≈ 18.6 µg/mL)
	MGAIIKAGAKIVGKGVLGGGASWLGANVGEKIWK (Altered Sequence of GarA from Lactococcus garvieae with W26A Mutation) [GarA-26A]	antibacterial activity in words [1]: no antibacterial activity

— patent US10781236B2, “Bacteriocin composition and method” (priority 2015, dated 2020)
